Measurements reported in patent publication US8999957B2, “Heterocyclic compounds as ERK inhibitors” (Merck Sharp & Dohme Corp., priority 2010, dated 2015).
Read-outs that look alike come from different tables or passages of the source.

Experiments:
ERK protein = ERK protein (Mus musculus, UniProt P63085); assay: TdF (Temperature Dependence Fluorescence, thermal shift) assay for ERK; assay type: binding
Description: Assays: TdF Assay for ERK […] The TdF assay was mainly conducted in the 96-well based CHROMO-4 real time fluorescence plate reader (BioRad). The Sypro Orange (Sigma-Aldrich), environmentally sensitive fluorescence dye, was used to monitor the protein folding-unfolding transition. Protein-ligand binding was gauged by the change (or shift) in the unfolding transition temperature (ΔTm) acquired at protein alone with respect to protein in the presence of ligand of interest. Compound of interest was first prepared in DMSO stock (typical concentration: 10 mM). […] Final percentage of DMSO resided in the sample was 2%. The sample plate was heated from 30° C. to 90° C. with thermal ramping rate of 1° C./min. […] The instrument thermal stability was ±0.2° C. The melting temperatures (Tm) for ERK protein under aforementioned conditions occurred at 61.0±0.2° C. and 64.8±02° C. respectively. Theoretical Basis for TdF-Based Ligand Binding Affinity Constant […] In brief, the binding constant of the ligand at the Tm is expressed as below: [formula] where T0 is the midpoint of unfolding for unliganded protein and Tm is the midpoint of unfolding in presence of ligand. [LTm] is free ligand at Tm. The ΔHu and ΔCpu are the enthalpy of unfolding and heat capacity change of unfolding for the protein respectively. Following algorithm derived by Winsor and coworker, the T0, ΔHu and ΔCpu can be determined separately from nonlinear regression fitting the protein alone melting curve: Where F(T) is the observed fluorescence intensity at any temperature T, Yn and Yu are the predicted fluorescence intensities for fully folded and unfolded protein, respectively; mn and mu are slope correction for changes in Yn and Yu with respect to changes in temperature (analogously replace T0 with Tm in the above equation for liganded protein to yield Tm). […] [formula] where ΔHL (T) is the van't Hoff enthalpy of ligand binding at temperature T and ΔCpL is the heat capacity upon ligand binding. For simplicity, the ΔCpL and ΔHL (T) were set to zero and −7 kcal/mol respectively.

[1] = molecular target: fully phosphorylated, active Mouse ERK2 protein (Mus musculus (Mouse), UniProt P63085); assay: Active ERK2 (aERK) IMAP assay, condition 1; assay type: biochemical; settings: aERK assay condition 1, 30 μM ATP
Chain of fully phosphorylated, active Mouse ERK2 protein (P63085 whole entry): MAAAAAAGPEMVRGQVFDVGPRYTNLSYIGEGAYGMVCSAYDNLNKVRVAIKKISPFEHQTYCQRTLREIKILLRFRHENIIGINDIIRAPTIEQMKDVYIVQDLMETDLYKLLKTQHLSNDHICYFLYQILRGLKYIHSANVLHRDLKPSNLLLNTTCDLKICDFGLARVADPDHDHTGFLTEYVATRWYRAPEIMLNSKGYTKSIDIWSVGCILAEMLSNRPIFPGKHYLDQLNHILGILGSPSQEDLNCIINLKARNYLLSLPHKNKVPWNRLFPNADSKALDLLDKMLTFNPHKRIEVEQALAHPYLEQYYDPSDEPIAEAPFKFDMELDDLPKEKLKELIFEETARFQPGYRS
Method: Active ERK2 (aERK) Assay: (Unless Indicated Otherwise, the Data Provided for aERK was obtained using Condition 1)
Activated ERK2 activity was also determined in the IMAP assay format using the procedure outlined above. […] Reactions proceeded for 30 minutes before termination by addition of 60 μl IMAP detection beads in binding buffer. Plates were read as above after 30 minute binding equilibration.

[2] = 3 μM ERK protein, uncertainty estimated ±50%, read-out: Kd TdF

Chain of ERK protein (P63085 2-358 limits assumed): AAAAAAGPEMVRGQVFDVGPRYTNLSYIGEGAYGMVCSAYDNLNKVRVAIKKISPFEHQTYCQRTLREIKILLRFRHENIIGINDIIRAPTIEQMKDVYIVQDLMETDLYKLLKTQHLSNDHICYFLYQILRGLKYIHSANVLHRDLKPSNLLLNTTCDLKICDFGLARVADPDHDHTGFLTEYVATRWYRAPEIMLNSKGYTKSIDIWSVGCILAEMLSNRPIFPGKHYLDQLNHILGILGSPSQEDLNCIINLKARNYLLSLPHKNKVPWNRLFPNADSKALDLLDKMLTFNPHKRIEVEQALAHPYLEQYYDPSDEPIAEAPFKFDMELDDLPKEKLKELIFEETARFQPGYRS

Kd (ERK protein; [2]) | IC50 [1] | Structure (SMILES) | Kd (ERK protein; read-out: Kd TdF, 3 μM ERK protein, uncertainty estimated ±50%)
20.5 nM | 507 nM | Cc1cc(-c2n[nH]c3ccc(C(=O)N[C@@H]4CCCN(Cc5ccncn5)C4)cc23)ccn1 | –
0.42 nM | 39.1 nM | COc1cccc(F)c1CN1CC(NC(=O)c2ccc3[nH]nc(-c4ccnc(C)c4)c3c2)CC(OC)C1 (centres unmarked) | –
0.48 nM | 74.7 nM | CC(=O)Nc1cc(-c2n[nH]c3ccc(C(=O)N[C@@H]4CCCN(Cc5ccccc5F)C4)cc23)ccc1O | –
6.6 nM | 507 nM | O=C(N[C@@H]1CCCN(Cc2ccccc2F)C1)c1ccc2[nH]nc(-c3ccnc(C(F)(F)F)c3)c2c1 | –
0.2 nM | 28.1 nM | Cc1cc(-c2n[nH]c3ccc(C(=O)N[C@@H]4CCCN(Cc5ccccc5Cl)C4)cc23)ccn1 | –
0.34 nM | 62.5 nM | [2H]C1(N2CCC[C@@H](NC(=O)c3ccc4[nH]nc(-c5ccnc(C)c5)c4c3)C2)CCc2ccccc21 (some centres unmarked) | –
2.63 nM | 359 nM | COc1cccc(F)c1CN1CCC[C@@H](NC(=O)c2ccc3[nH]nc(-c4ccc(S(=O)(=O)N(C)C)cc4)c3c2)C1 | –
1.37 nM | 195 nM | COc1cccc(F)c1CN1CCC[C@@H](NC(=O)c2ccc3[nH]nc(-c4ccc(S(C)(=O)=O)cc4)c3c2)C1 | –
0.03 nM | 10.6 nM | COc1cccc(F)c1CN1C[C@H](C)C[C@@H](NC(=O)c2ccc3[nH]nc(-c4ccc5nccn5c4)c3c2)C1 | –
0.21 nM | 495 nM | COc1cccc(F)c1CN1CCC[C@@H](NC(=O)c2ccc3[nH]nc(-c4ccc5occc5c4)c3c2)C1 | –
0.02 nM | 6.1 nM | COc1cccc(F)c1CN1C[C@@H](C)C[C@@H](NC(=O)c2ccc3[nH]nc(-c4ccc5nn(C)cc5c4)c3c2)C1 | –
1.29 nM | 254 nM | COc1ccccc1CN1CCC[C@@H](NC(=O)c2ccc3[nH]nc(-c4ccc(O)c(NC(C)=O)c4)c3c2)C1 | –
1.89 nM | 234 nM | Cc1cc(-c2n[nH]c3ccc(C(=O)N[C@@H]4CCCN(Cc5ncccc5F)C4)cc23)ccn1 | –
0.4 nM | 33.2 nM | O=C(N[C@@H]1CCCN(Cc2ccccc2F)C1)c1ccc2[nH]nc(-c3ccnc(C4CC4)c3)c2c1 | –
1.95 nM | 154 nM | CC(=O)n1cc(CN2CCC[C@@H](NC(=O)c3ccc4[nH]nc(-c5ccnc(C)c5)c4c3)C2)c2ccccc21 | –
0.1 nM | 78.5 nM | COc1cccc(F)c1CN1CCC[C@@H](NC(=O)c2ccc3[nH]nc(-c4ccc5nc(C)sc5c4)c3c2)C1 | –
76 nM | 626 nM | O=C(N[C@@H]1CCCN(Cc2ccncc2)C1)c1ccc2[nH]nc(-c3ccc4c(c3)CCO4)c2c1 | –
3.79 nM | 146 nM | COC(=O)C1CC(NC(=O)c2ccc3[nH]nc(-c4ccnc(C)c4)c3c2)CN(Cc2c(F)cccc2OC)C1 (centres unmarked) | –
17.7 nM | 663 nM | COc1cccc(F)c1CN1C[C@@H](NC(=O)c2ccc3[nH]nc(-c4ccc5nccn5c4)c3c2)CCC1=O | –

Kd (ERK protein; [2]) | IC50 [1] | Structure (SMILES) | Kd (ERK protein; read-out: Kd TdF, 3 μM ERK protein, uncertainty estimated ±50%)
3.29 nM | 881 nM | Cn1cc2cc(-c3n[nH]c4ccc(C(=O)NC5C[C@@H]6C[C@H]5N(Cc5c(F)cccc5F)C6)cc34)ccc2n1 (some centres unmarked) | –
1.38 nM | 21.5 nM | Cc1cc(-c2n[nH]c3ccc(C(=O)N[C@@H]4CCCN(Cc5cn(C)c6ccccc56)C4)cc23)ccn1 | –
4.12 nM | 992 nM | COc1cccc(F)c1CN1C[C@@H](NC(=O)c2ccc3[nH]nc(-c4ccnc(C)c4)c3c2)CCC1=O | –
82 nM | 1000 nM | N#Cc1ccc(CN2CCC[C@@H](NC(=O)c3ccc4[nH]nc(-c5ccc6c(c5)CCO6)c4c3)C2)cc1 | –
0.53 nM | 18.7 nM | Cc1cc(-c2n[nH]c3ccc(C(=O)N[C@@H]4CCCN(Cc5csc6ccccc56)C4)cc23)ccn1 | –
0.01 nM | 5.84 nM | COc1cccc(F)c1CN1C[C@@H](C)C[C@@H](NC(=O)c2ccc3[nH]nc(-c4ccc5nccn5c4)c3c2)C1 | –
20.3 nM | 875 nM | Cc1cc(-c2n[nH]c3ccc(C(=O)N[C@@H]4CCCN(Cc5scnc5C)C4)cc23)ccn1 | –
4.4 nM | 128 nM | Cc1cc(-c2n[nH]c3ccc(C(=O)N[C@@H]4CCCN(C(C)c5ccccc5)C4)cc23)ccn1 (some centres unmarked) | –
0.9 nM | 189 nM | COc1cccc(F)c1CN1CCC[C@@H](NC(=O)c2ccc3[nH]nc(-c4ccc(C(C)=O)cc4)c3c2)C1 | –
1.72 nM | 246 nM | CCCOc1ccccc1CN1CCC[C@@H](NC(=O)c2ccc3[nH]nc(-c4ccnc(C)c4)c3c2)C1 | –
11 nM | 158 nM | Cn1cc(CN2CCC[C@@H](NC(=O)c3ccc4[nH]nc(-c5ccc6c(c5)CCO6)c4c3)C2)c2ccccc21 | –
0.8 nM | – | O=C(NC1CNCC(c2ccccc2)C1)c1ccc2[nH]nc(-c3ccncc3)c2c1 (centres unmarked) | –
0.1 nM | 4.02 nM | COc1cccc(F)c1CN1CCC[C@@H](NC(=O)c2ccc3[nH]nc(-c4ccc5cncn5c4)c3c2)C1 | –
0.1 nM | 16.4 nM | COc1cccc(F)c1CN1CCC[C@@H](NC(=O)c2ccc3[nH]nc(-c4ccc5nc(C)oc5c4)c3c2)C1 | –
1.59 nM | 114 nM | CCn1cc(-c2n[nH]c3ccc(C(=O)N[C@@H]4CCCN(Cc5c(F)cccc5OC)C4)cc23)cn1 | –
73 nM | – | O=C(NC1CCCCNC1=O)c1ccc2[nH]nc(-c3ccncc3)c2c1 (centres unmarked) | –
130 nM | 923 nM | Cc1cc(-c2n[nH]c3ccc(C(=O)NC4CCCN(Cc5ncccn5)C4)cc23)ccn1 (centres unmarked) | –
2.4 nM | 32.9 nM | Cc1cc(-c2n[nH]c3ccc(C(=O)N[C@@H]4CCCN(CC(=O)c5ccccc5F)C4)cc23)ccn1 | –
0.39 nM | 217 nM | COc1cccc(F)c1CN1C[C@H](C)C[C@@H](NC(=O)c2ccc3[nH]nc(-c4ccc5nn(C)cc5c4)c3c2)C1 | –

Kd (ERK protein; [2]) | IC50 [1] | Structure (SMILES) | Kd (ERK protein; read-out: Kd TdF, 3 μM ERK protein, uncertainty estimated ±50%)
106 nM | – | O=C(NC1CNCCC1c1cccc(F)c1)c1ccc2[nH]nc(-c3ccncc3)c2c1 (centres unmarked) | –
6.5 nM | 483 nM | COc1cccc(F)c1CN1CCC[C@@H](NC(=O)c2ccc3[nH]nc(-c4ccc(N)c(OC(C)=O)c4)c3c2)C1 | –
0.28 nM | 65.4 nM | Cc1cc(-c2n[nH]c3ccc(C(=O)N[C@@H]4CCCN(C5CCc6ccccc65)C4)cc23)ccn1 (some centres unmarked) | –
3.33 nM | 204 nM | COc1cccc(F)c1CN1C[C@H](C)C[C@@H](NC(=O)c2ccc3[nH]nc(-c4ccnc(C)c4)c3c2)C1 | –
1.43 nM | 15.1 nM | Cc1cc(-c2n[nH]c3ccc(C(=O)N[C@@H]4CCCN(Cc5cc6ccccc6o5)C4)cc23)ccn1 | –
85.2 nM | 527 nM | COc1cccc(F)c1CN1C[C@H]2C[C@@H]1[C@H](NC(=O)c1ccc3[nH]nc(-c4ccc5nn(C)cc5c4)c3c1)C2 | –
8 nM | – | O=C(Nc1ccc2[nH]nc(-c3ccncc3)c2c1)C1CNCC(c2ccccc2)C1 (centres unmarked) | –
0.6 nM | 45.6 nM | COc1cccc(F)c1CN1CCC[C@@H](NC(=O)c2ccc3[nH]nc(-c4ccc5oc(C)nc5c4)c3c2)C1 | –
2.01 nM | 609 nM | COc1cccc(F)c1CN1CCC[C@@H](NC(=O)c2ccc3[nH]nc(-c4cccc(C(C)=O)c4)c3c2)C1 | –
1.29 nM | 224 nM | CC(=O)Nc1cc(-c2n[nH]c3ccc(C(=O)N[C@@H]4CCCN(Cc5c(F)cccc5F)C4)cc23)ccc1O | –
2.36 nM | 140 nM | Cc1cc(-c2n[nH]c3ccc(C(=O)N[C@@H]4CCCN(Cc5ccccc5O)C4)cc23)ccn1 | –
0.21 nM | 41.7 nM | Cc1cc(-c2n[nH]c3ccc(C(=O)N[C@@H]4CCCN(Cc5cc6ccccc6n5C)C4)cc23)ccn1 | –
0.15 nM | 807 nM | COc1cccc(F)c1CN1CCC[C@@H](NC(=O)c2ccc3[nH]nc(-c4ccc5sccc5c4)c3c2)C1 | –
0.35 nM | 13.3 nM | [2H]C(c1c(F)cccc1OC)N1CCC[C@@H](NC(=O)c2ccc3[nH]nc(-c4ccnc(C)c4)c3c2)C1 (some centres unmarked) | –
0.4 nM | 19.8 nM | CCc1cc(-c2n[nH]c3ccc(C(=O)N[C@@H]4CCCN(Cc5ccccc5F)C4)cc23)ccn1 | –
0.52 nM | 33 nM | COc1cccc(F)c1CN1CCCC(NC(=O)c2ccc3[nH]nc(-c4ccc5c(c4)CCO5)c3c2)C1 (centres unmarked) | –
1000 nM | 1000 nM | CN(C)c1ccc(CN2CCC[C@@H](NC(=O)c3ccc4[nH]nc(-c5ccc6c(c5)CCO6)c4c3)C2)cc1 | –
290 nM | – | O=C(NC1CN(C(=O)OCc2ccccc2)CCNC1=O)c1ccc2[nH]nc(-c3ccncc3)c2c1 (centres unmarked) | –

Structure (SMILES) | Kd (ERK protein; [2]) | IC50 [1] | Kd (ERK protein; read-out: Kd TdF, 3 μM ERK protein, uncertainty estimated ±50%)
Cc1cc(-c2n[nH]c3ccc(C(=O)N[C@@H]4CCCN(CCc5ccccc5C(F)(F)F)C4)cc23)ccn1 | – | 86.9 nM | 2.2 nM
CN1CC(NC(=O)c2ccc3[nH]nc(-c4ccncc4)c3c2)CC(c2ccccc2)C1 (centres unmarked) [drawing 219] | 1.4 nM | – | –
